Active and inactive are the calls of the source. Rule as the data show it, for most assays here: actives have a measured IC50 and inactives only a lower limit.
Assays:
[1] = biological target: T1, Sentrin-specific protease 6 (Homo sapiens, UniProt Q9GZR1); experiment: SENP6 protease inhibitors, SAR follow-up, biochemical, luminescence, set 2 (AID 588598); format: functional
T1 sequence (Q9GZR1 whole entry): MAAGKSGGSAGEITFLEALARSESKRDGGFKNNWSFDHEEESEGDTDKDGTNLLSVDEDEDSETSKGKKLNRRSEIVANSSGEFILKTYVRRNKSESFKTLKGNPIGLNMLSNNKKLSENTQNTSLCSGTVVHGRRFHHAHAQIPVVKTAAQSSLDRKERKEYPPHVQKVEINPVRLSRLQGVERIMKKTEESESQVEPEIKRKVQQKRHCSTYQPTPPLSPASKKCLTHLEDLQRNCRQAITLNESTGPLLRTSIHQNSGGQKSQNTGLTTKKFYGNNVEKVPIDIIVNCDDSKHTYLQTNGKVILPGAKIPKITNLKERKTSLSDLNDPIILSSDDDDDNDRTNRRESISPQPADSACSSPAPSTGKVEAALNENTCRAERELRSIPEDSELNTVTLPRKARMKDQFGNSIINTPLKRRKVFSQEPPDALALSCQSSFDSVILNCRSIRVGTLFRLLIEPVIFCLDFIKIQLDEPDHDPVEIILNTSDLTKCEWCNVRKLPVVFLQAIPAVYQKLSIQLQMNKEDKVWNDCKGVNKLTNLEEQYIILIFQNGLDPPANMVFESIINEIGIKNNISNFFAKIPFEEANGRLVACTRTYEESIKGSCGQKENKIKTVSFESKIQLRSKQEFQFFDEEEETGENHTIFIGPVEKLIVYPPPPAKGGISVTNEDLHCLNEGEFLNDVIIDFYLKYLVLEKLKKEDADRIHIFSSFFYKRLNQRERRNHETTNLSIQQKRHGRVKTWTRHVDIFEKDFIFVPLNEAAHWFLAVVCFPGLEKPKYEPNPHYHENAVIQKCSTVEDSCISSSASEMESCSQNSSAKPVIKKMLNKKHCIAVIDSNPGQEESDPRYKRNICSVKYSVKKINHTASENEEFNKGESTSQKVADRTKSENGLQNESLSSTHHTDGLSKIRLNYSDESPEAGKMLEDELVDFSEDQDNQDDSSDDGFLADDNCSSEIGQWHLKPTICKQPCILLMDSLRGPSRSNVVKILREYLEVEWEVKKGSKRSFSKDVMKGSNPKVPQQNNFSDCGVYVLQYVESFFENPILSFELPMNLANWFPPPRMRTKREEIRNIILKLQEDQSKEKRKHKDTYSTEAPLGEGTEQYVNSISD

[2] = biological target: T2, Caspase-3 (Homo sapiens, UniProt P42574); experiment: caspase-3 inhibitors as off-family protease, SAR follow-up, selectivity assay for SENP protease inhibitor project, biochemical, luminescence, set 2 (AID 588599); format: functional
T2 sequence (P42574 whole entry): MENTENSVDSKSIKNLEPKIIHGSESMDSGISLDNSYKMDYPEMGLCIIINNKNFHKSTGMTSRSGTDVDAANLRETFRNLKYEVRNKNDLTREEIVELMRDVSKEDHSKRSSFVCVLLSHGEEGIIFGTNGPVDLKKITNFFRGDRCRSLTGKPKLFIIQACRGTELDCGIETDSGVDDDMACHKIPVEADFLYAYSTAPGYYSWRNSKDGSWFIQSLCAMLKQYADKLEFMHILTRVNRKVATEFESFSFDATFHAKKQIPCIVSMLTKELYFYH

[3] = biological target: T3, Sentrin-specific protease 8 (Homo sapiens, UniProt Q96LD8); experiment: SENP8 protease inhibitors, SAR follow-up, biochemical, luminescence, set 2 (AID 588601); format: functional
T3 sequence (Q96LD8 whole entry): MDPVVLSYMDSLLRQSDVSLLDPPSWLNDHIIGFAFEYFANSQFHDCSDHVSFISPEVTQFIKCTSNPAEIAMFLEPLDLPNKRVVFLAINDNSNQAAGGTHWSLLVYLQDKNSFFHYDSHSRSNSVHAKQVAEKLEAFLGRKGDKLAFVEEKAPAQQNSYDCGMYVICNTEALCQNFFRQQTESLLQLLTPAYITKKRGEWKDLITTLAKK

[4] = biological target: T4, Sentrin-specific protease 7 (Homo sapiens, UniProt Q9BQF6); experiment: SENP7 protease inhibitors, SAR follow-up, biochemical, luminescence, set 2 (AID 588600); format: functional
T4 sequence (Q9BQF6 whole entry): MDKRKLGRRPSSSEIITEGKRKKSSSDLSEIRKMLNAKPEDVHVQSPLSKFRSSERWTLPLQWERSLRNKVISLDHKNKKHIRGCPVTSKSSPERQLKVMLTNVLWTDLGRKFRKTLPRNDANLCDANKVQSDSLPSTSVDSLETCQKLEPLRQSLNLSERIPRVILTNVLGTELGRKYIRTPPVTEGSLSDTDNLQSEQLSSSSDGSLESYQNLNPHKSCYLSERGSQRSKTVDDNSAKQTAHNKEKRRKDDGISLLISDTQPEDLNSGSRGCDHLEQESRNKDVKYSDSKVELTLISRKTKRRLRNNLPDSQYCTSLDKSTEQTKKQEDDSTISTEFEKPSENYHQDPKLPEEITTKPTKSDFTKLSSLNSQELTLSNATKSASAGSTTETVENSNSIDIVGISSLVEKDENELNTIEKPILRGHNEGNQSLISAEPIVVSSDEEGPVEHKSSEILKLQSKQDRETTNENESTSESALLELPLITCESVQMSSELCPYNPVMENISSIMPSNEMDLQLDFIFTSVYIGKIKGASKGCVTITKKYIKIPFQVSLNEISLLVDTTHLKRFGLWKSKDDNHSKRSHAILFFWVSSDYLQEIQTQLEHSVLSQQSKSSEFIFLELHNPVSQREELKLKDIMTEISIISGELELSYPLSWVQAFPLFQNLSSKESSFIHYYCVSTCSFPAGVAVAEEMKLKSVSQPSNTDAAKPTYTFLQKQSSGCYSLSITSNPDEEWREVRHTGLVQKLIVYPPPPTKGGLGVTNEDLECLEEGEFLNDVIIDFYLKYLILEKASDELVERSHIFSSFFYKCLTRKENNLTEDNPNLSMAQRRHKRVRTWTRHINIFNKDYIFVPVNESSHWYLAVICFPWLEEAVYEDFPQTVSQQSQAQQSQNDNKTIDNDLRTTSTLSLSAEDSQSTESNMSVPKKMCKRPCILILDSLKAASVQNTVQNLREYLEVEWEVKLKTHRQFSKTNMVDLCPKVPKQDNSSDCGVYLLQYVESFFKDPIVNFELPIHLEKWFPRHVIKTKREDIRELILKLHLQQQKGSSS

[5] = CAL PDZ domain peptide-binding inhibitors, dose response, biochemical, fluorescence polarization, untagged CAL PDZ, cherry-pick, set 2 (AID 602254); format: functional
[6] = biological target: Melanocortin receptor 4 (Homo sapiens, UniProt P32245); format: functional, cell-based;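 also: Cell-based assay with luminescence read-out, confirmatory dose-response testing for agonist activity of biased ligands at MC4R; human U2OS cells with tagged receptor and beta-arrestin; potency of agonists that increase receptor coupling to beta-arrestin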
Chain of Melanocortin receptor 4 (P32245 whole entry): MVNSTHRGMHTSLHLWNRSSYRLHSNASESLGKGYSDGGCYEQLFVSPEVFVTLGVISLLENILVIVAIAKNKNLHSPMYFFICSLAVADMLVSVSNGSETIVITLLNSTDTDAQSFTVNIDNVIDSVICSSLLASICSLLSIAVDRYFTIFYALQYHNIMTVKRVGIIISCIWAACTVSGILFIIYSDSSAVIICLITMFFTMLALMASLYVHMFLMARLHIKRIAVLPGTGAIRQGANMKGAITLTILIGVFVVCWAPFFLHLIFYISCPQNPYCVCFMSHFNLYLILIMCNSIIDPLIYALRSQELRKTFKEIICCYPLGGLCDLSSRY

[7] = biological target: T5, Alkaline phosphatase, tissue-nonspecific isozyme (Homo sapiens, UniProt P05186); experiment: TNAP enzyme inhibition by screening hits, dose response, selectivity assay for mouse IAP inhibitor project, biochemical, human TNAP, uHTS hits (AID 488906); format: functional
T5 sequence (P05186 whole entry): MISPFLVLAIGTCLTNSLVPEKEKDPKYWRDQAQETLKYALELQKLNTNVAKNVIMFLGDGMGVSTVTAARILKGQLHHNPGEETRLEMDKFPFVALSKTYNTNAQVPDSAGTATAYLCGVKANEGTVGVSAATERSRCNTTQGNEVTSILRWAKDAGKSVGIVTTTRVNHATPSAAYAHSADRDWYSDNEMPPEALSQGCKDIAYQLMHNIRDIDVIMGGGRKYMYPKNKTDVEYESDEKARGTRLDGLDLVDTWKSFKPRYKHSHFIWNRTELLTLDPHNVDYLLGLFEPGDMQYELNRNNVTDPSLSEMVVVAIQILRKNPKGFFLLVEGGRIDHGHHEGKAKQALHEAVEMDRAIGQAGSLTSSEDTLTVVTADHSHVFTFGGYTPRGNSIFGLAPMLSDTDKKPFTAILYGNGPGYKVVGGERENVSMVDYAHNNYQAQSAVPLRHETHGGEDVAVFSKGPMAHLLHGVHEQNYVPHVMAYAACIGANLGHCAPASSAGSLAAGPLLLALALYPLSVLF

[8] = biological target: Intestinal-type alkaline phosphatase (Homo sapiens, UniProt P09923); experiment: inhibition of human intestinal alkaline phosphatase – biochemical, dose response (AID 488876); format: functional
Chain of Intestinal-type alkaline phosphatase (Homo sapiens, UniProt P09923) (P09923 whole entry): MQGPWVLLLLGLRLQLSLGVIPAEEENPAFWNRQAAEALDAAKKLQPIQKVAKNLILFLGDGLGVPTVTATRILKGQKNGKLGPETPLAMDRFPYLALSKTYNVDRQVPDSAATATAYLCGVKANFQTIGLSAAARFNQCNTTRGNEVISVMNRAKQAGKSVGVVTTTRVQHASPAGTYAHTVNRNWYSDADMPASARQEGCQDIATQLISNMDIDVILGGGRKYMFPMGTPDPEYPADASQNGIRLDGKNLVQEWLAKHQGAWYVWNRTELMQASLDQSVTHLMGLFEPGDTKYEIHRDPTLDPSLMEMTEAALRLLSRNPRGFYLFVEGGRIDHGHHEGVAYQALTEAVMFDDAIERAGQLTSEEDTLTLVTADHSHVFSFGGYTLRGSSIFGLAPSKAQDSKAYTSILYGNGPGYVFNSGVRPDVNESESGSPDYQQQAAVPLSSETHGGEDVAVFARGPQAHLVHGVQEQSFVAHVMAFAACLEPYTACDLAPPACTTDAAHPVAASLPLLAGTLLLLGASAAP

[9] = biological target: T6, Bcl-2-related protein A1 (Mus musculus, UniProt Q07440); format: functional;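 also: confirmatory dose–response counterscreen on Bfl-1, used to check hits from a UBC13 polyubiquitin inhibitor campaign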
T6 sequence (Q07440 whole entry): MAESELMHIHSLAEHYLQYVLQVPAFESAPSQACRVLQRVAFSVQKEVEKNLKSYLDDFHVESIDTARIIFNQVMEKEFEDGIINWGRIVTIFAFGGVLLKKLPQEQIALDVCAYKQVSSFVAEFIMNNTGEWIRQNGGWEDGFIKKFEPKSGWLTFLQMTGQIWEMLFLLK

[10] = biological target: Intestinal-type alkaline phosphatase (Mus musculus, UniProt P24822); experiment: PubChem AID 488785; format: functional
Chain of Intestinal-type alkaline phosphatase (Mus musculus, UniProt P24822) (P24822 whole entry): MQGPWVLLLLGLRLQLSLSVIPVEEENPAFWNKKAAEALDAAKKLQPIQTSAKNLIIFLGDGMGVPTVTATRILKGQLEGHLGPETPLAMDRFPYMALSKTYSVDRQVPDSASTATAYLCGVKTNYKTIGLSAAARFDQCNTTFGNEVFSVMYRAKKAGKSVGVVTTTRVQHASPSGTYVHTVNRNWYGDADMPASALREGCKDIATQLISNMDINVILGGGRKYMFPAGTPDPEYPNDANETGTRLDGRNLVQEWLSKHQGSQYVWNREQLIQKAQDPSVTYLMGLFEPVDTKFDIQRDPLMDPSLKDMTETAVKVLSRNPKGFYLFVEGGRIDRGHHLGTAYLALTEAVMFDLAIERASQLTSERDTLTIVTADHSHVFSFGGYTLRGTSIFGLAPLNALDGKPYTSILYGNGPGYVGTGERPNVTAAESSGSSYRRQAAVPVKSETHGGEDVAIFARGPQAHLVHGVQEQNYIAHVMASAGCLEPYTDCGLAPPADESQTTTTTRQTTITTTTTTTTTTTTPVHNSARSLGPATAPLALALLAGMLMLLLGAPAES

[11] = biological target: T7, Ubiquitin-conjugating enzyme E2 N (Homo sapiens, UniProt P61088); format: functional
T7 sequence (P61088 whole entry): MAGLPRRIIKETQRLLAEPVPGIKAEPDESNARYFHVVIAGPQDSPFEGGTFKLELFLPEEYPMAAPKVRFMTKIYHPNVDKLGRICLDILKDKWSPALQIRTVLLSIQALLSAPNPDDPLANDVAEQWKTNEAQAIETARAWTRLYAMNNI

[12] = test system: HEK293; experiment: optical interference in Abeta FP readout, dose response, artefact control for IDE activator project, biochemical, fluorescence polarization (AID 588442); format: functional, cell-based; conditions: Homo sapiens
[13] = test system: HEK293; experiment: HEK cell cytotoxicity by LDH release, dose response, cytotoxicity control for IDE activator project, fluorescence, HEK cells (AID 588440); format: functional, cell-based; conditions: Homo sapiens;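 also: cytotoxicity by LDH release measuring loss of membrane integrity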
[14] = biological target: T8, Insulin-degrading enzyme (Homo sapiens, UniProt P14735); experiment: activators of recombinant IDE enzyme, dose response, counter-screen for IDE activator project, biochemical, fluorescence polarization (AID 588681)
T8 sequence (P14735 whole entry): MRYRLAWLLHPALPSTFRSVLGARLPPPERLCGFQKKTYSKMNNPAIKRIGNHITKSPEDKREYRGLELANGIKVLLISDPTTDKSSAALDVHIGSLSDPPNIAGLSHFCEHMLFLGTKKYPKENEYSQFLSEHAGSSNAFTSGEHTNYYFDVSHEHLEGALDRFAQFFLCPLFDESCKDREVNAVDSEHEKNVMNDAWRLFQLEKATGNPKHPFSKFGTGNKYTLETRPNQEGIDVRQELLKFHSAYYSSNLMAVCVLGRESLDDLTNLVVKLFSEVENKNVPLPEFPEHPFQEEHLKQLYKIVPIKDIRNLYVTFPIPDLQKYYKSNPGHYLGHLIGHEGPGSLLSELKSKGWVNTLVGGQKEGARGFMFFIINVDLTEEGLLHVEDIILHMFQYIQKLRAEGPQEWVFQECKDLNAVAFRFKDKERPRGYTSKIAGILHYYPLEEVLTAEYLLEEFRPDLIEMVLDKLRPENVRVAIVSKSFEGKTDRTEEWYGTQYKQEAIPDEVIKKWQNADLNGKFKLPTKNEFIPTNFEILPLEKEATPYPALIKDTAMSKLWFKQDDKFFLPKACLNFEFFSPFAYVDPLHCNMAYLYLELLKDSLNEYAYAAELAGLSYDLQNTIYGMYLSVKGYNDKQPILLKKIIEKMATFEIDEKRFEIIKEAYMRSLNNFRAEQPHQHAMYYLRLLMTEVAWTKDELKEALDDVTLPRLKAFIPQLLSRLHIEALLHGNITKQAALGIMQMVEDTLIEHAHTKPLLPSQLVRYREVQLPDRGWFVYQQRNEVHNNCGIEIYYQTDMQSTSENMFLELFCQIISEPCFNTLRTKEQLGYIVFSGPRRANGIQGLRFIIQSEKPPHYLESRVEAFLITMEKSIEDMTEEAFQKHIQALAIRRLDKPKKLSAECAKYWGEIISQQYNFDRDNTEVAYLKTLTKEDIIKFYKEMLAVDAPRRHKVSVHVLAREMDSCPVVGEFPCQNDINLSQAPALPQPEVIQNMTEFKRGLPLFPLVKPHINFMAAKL

[15] = biological target: T8, Insulin-degrading enzyme; experiment: activators of endogenous IDE in HEK cells, dose response, cell-based, fluorescence polarization (AID 588439); format: functional
[16] = biological target: T7, Ubiquitin-conjugating enzyme E2 N; format: functional; remark: listed apart in the source

Compound: Cc1[nH]c2ccccc2c1C(=O)C(=O)NCc1cc(-c2cc3ccccc3o2)on1
- IC50 [1]: > 99 µM (inactive)
- IC50 [2]: > 99 µM (inactive)
- IC50 [3]: > 99 µM (inactive)
- IC50 [4]: > 99 µM (inactive)

Compound: Cc1ccc(-c2nc(C)sc2CC(=O)OCC(=O)Nc2ccc(F)c(Cl)c2)cc1
- AC50 [5]: 110 µM (active)

Compound: Cc1ccc(C(=O)Nc2nc(C(N)Cc3ccc(C(F)(F)F)cc3)cs2)cc1 (stereo unspecified)
- EC50 [6]: > 89.2 µM (inactive)

Compound: C#CCOCCOCCOCCNc1nc(N2CCN(C(=O)CCCCCCCCCCNC(=O)Cn3cc(CCCCCN)nn3)CC2)nc(N2CCN(C(=O)CCCCCCCCCCNC(=O)[C@@H](CCSC)n3cc(CCO)nn3)CC2)n1
- IC50 [7]: > 100 µM (inactive)
- IC50 [8]: > 100 µM (inactive)
- IC50 [9]: 18.5 µM (active)
- IC50 [10]: 6.92 µM (active)
- IC50 [11]: 6.59 µM (active)
- EC50 [12]: > 54.7 µM (inactive)
- IC50 [13]: 14.5 µM (inactive)
- EC50 [14]: > 54.7 µM (inactive)
- EC50 [15]: > 6.08 µM (active)
- IC50 [16]: 4.6 µM (active)

Reference: ChEMBL document CHEMBL1201862, “PubChem BioAssay data set” (2004)
